Data from US20160168126A1, “CHEMICAL COMPOUNDS” (SYNGENTA LIMITED, priority 2013, published 2016).

These compounds were tested on a variety of test species (assay: Post-emergence herbicidal activity (glasshouse, sprayed 8 days after sowing, evaluated after 13 days)). Details: Abutilon theophrasti, 250 g/ha, scale 0-5.
Type: in vivo
Procedure, shortened: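 Seeds were sown in standard soil and cultivated for 8 days under controlled glasshouse conditions. Seedlings were then sprayed with an aqueous solution of the formulated compound containing 0.5% Tween 20. Injury was rated after a further 13 days, where 5 indicated total damage.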
Wherever Post-emergence herbicidal damage score, ABUTH (Abutilon theophrasti) is given: key: 5=total damage to plant; 0=no damage to plant.
Wherever Post-emergence herbicidal damage score, AMARE (Amaranthus retroflexus) is given: key: 5=total damage to plant; 0=no damage to plant.

SMILES	Post-emergence herbicidal damage score, ABUTH (Abutilon theophrasti)
COC1=C(C)C(=O)N(c2cc(C(C)(C)C)[nH]n2)C1O (stereo not drawn) [Compound I1]	5
COC1=C(C)C(=O)N(c2cc(C(C)(C)C)n(C)n2)C1O (stereo not drawn) [Compound I2]	5

Same assay, conditions: Abutilon theophrasti, 1000 g/ha, scale 0-5

SMILES	Post-emergence herbicidal damage score, ABUTH (Abutilon theophrasti)
CC1=C(Br)C(O)N(c2cc(C(C)(C)C)n(C)n2)C1=O (stereo not drawn) [Compound H1]	5
CC1=C(Br)C(O)N(c2cc(C(C)(C)C)[nH]n2)C1=O (stereo not drawn) [Compound H2]	5
CC(C)=CCc1cc(N2C(=O)C(C)=C(Br)C2O)nn1C (stereo not drawn) [Compound H3]	0
CC1=C(Br)C(O)N(c2cc(C(F)(F)F)n(C)n2)C1=O (stereo not drawn) [Compound H4]	5
CC1=C(Br)C(O)N(c2nn(C)c(C(C)(C)C)c2C#N)C1=O (stereo not drawn) [Compound H5]	2
CCC1=C(Br)C(O)N(c2nn(C)c(C(C)(C)C)c2C#N)C1=O (stereo not drawn) [Compound H6]	1
CC1=C(Br)C(O)N(c2cc3n(n2)CCC3(C)C)C1=O (stereo not drawn) [Compound H7]	5
CC1=C(Br)C(O)N(c2cc3n(n2)CCCC3(C)C)C1=O (stereo not drawn) [Compound H8]	5
CC1=C(Br)C(O)N(c2cc3n(n2)CCSC3(C)C)C1=O (stereo not drawn) [Compound H9]	4
CC1=C(Br)C(O)N(c2nn(C)c3c2CCC3(C)C)C1=O (stereo not drawn) [Compound H10]	5
COC1=C(C)C(=O)N(c2cc(C(F)(F)F)n(C)n2)C1O (stereo not drawn) [Compound I3]	5
COC1=C(C)C(=O)N(c2nn(C)c3c2CCC3(C)C)C1O (stereo not drawn) [Compound I4]	5
COC1=C(C)C(=O)N(c2cc3n(n2)CCCC3(C)C)C1O (stereo not drawn) [Compound I5]	5
COC1=C(Cl)C(O)N(c2cc(C(C)(C)C)n(C)n2)C1=O (stereo not drawn) [Compound J1, 1-(5-tert-butyl-1-methyl-pyrazol-3-yl)-3-chloro-2-hydroxy-4-methoxy-2H-pyrrol-5-one]	5

Same assay, conditions: Alopecurus myosuroides, 250 g/ha, scale 0-5

SMILES	Post-emergence herbicidal damage score, ALOMY (Alopecurus myosuroides)
COC1=C(C)C(=O)N(c2cc(C(C)(C)C)[nH]n2)C1O (stereo not drawn) [Compound I1]	3
COC1=C(C)C(=O)N(c2cc(C(C)(C)C)n(C)n2)C1O (stereo not drawn) [Compound I2]	4

Same assay, conditions: Alopecurus myosuroides, 1000 g/ha, scale 0-5

SMILES	Post-emergence herbicidal damage score, ALOMY (Alopecurus myosuroides)
CC1=C(Br)C(O)N(c2cc(C(C)(C)C)n(C)n2)C1=O (stereo not drawn) [Compound H1]	4
CC1=C(Br)C(O)N(c2cc(C(C)(C)C)[nH]n2)C1=O (stereo not drawn) [Compound H2]	3
CC(C)=CCc1cc(N2C(=O)C(C)=C(Br)C2O)nn1C (stereo not drawn) [Compound H3]	0
CC1=C(Br)C(O)N(c2cc(C(F)(F)F)n(C)n2)C1=O (stereo not drawn) [Compound H4]	5
CC1=C(Br)C(O)N(c2nn(C)c(C(C)(C)C)c2C#N)C1=O (stereo not drawn) [Compound H5]	1
CCC1=C(Br)C(O)N(c2nn(C)c(C(C)(C)C)c2C#N)C1=O (stereo not drawn) [Compound H6]	2
CC1=C(Br)C(O)N(c2cc3n(n2)CCC3(C)C)C1=O (stereo not drawn) [Compound H7]	5
CC1=C(Br)C(O)N(c2cc3n(n2)CCCC3(C)C)C1=O (stereo not drawn) [Compound H8]	5
CC1=C(Br)C(O)N(c2cc3n(n2)CCSC3(C)C)C1=O (stereo not drawn) [Compound H9]	5
CC1=C(Br)C(O)N(c2nn(C)c3c2CCC3(C)C)C1=O (stereo not drawn) [Compound H10]	5
COC1=C(C)C(=O)N(c2cc(C(F)(F)F)n(C)n2)C1O (stereo not drawn) [Compound I3]	5
COC1=C(C)C(=O)N(c2nn(C)c3c2CCC3(C)C)C1O (stereo not drawn) [Compound I4]	5
COC1=C(C)C(=O)N(c2cc3n(n2)CCCC3(C)C)C1O (stereo not drawn) [Compound I5]	5
COC1=C(Cl)C(O)N(c2cc(C(C)(C)C)n(C)n2)C1=O (stereo not drawn) [Compound J1, 1-(5-tert-butyl-1-methyl-pyrazol-3-yl)-3-chloro-2-hydroxy-4-methoxy-2H-pyrrol-5-one]	5

Same assay, conditions: Amaranthus retroflexus, 250 g/ha, scale 0-5

SMILES	Post-emergence herbicidal damage score, AMARE (Amaranthus retroflexus)
COC1=C(C)C(=O)N(c2cc(C(C)(C)C)[nH]n2)C1O (stereo not drawn) [Compound I1]	5
COC1=C(C)C(=O)N(c2cc(C(C)(C)C)n(C)n2)C1O (stereo not drawn) [Compound I2]	5

Same assay, conditions: Amaranthus retroflexus, 1000 g/ha, scale 0-5

SMILES	Post-emergence herbicidal damage score, AMARE (Amaranthus retroflexus)
CC1=C(Br)C(O)N(c2cc(C(C)(C)C)n(C)n2)C1=O (stereo not drawn) [Compound H1]	5
CC1=C(Br)C(O)N(c2cc(C(C)(C)C)[nH]n2)C1=O (stereo not drawn) [Compound H2]	5
CC(C)=CCc1cc(N2C(=O)C(C)=C(Br)C2O)nn1C (stereo not drawn) [Compound H3]	0
CC1=C(Br)C(O)N(c2cc(C(F)(F)F)n(C)n2)C1=O (stereo not drawn) [Compound H4]	5
CC1=C(Br)C(O)N(c2nn(C)c(C(C)(C)C)c2C#N)C1=O (stereo not drawn) [Compound H5]	2
CCC1=C(Br)C(O)N(c2nn(C)c(C(C)(C)C)c2C#N)C1=O (stereo not drawn) [Compound H6]	2
CC1=C(Br)C(O)N(c2cc3n(n2)CCC3(C)C)C1=O (stereo not drawn) [Compound H7]	4
CC1=C(Br)C(O)N(c2cc3n(n2)CCCC3(C)C)C1=O (stereo not drawn) [Compound H8]	5
CC1=C(Br)C(O)N(c2cc3n(n2)CCSC3(C)C)C1=O (stereo not drawn) [Compound H9]	4
CC1=C(Br)C(O)N(c2nn(C)c3c2CCC3(C)C)C1=O (stereo not drawn) [Compound H10]	5
COC1=C(C)C(=O)N(c2cc(C(F)(F)F)n(C)n2)C1O (stereo not drawn) [Compound I3]	5
COC1=C(C)C(=O)N(c2nn(C)c3c2CCC3(C)C)C1O (stereo not drawn) [Compound I4]	5
COC1=C(C)C(=O)N(c2cc3n(n2)CCCC3(C)C)C1O (stereo not drawn) [Compound I5]	5
COC1=C(Cl)C(O)N(c2cc(C(C)(C)C)n(C)n2)C1=O (stereo not drawn) [Compound J1, 1-(5-tert-butyl-1-methyl-pyrazol-3-yl)-3-chloro-2-hydroxy-4-methoxy-2H-pyrrol-5-one]	5

Same assay, conditions: Echinochloa crus-galli, 250 g/ha, scale 0-5

SMILES	Post-emergence herbicidal damage score, ECHCG (Echinochloa crus-galli)
COC1=C(C)C(=O)N(c2cc(C(C)(C)C)[nH]n2)C1O (stereo not drawn) [Compound I1]	3
COC1=C(C)C(=O)N(c2cc(C(C)(C)C)n(C)n2)C1O (stereo not drawn) [Compound I2]	3

Same assay, conditions: Echinochloa crus-galli, 1000 g/ha, scale 0-5

SMILES	Post-emergence herbicidal damage score, ECHCG (Echinochloa crus-galli)
CC1=C(Br)C(O)N(c2cc(C(C)(C)C)n(C)n2)C1=O (stereo not drawn) [Compound H1]	5
CC1=C(Br)C(O)N(c2cc(C(C)(C)C)[nH]n2)C1=O (stereo not drawn) [Compound H2]	2
CC(C)=CCc1cc(N2C(=O)C(C)=C(Br)C2O)nn1C (stereo not drawn) [Compound H3]	0
CC1=C(Br)C(O)N(c2cc(C(F)(F)F)n(C)n2)C1=O (stereo not drawn) [Compound H4]	2
CC1=C(Br)C(O)N(c2nn(C)c(C(C)(C)C)c2C#N)C1=O (stereo not drawn) [Compound H5]	1
CCC1=C(Br)C(O)N(c2nn(C)c(C(C)(C)C)c2C#N)C1=O (stereo not drawn) [Compound H6]	1
CC1=C(Br)C(O)N(c2cc3n(n2)CCC3(C)C)C1=O (stereo not drawn) [Compound H7]	3
CC1=C(Br)C(O)N(c2cc3n(n2)CCCC3(C)C)C1=O (stereo not drawn) [Compound H8]	4
CC1=C(Br)C(O)N(c2cc3n(n2)CCSC3(C)C)C1=O (stereo not drawn) [Compound H9]	3
CC1=C(Br)C(O)N(c2nn(C)c3c2CCC3(C)C)C1=O (stereo not drawn) [Compound H10]	4
COC1=C(C)C(=O)N(c2cc(C(F)(F)F)n(C)n2)C1O (stereo not drawn) [Compound I3]	5
COC1=C(C)C(=O)N(c2nn(C)c3c2CCC3(C)C)C1O (stereo not drawn) [Compound I4]	5
COC1=C(C)C(=O)N(c2cc3n(n2)CCCC3(C)C)C1O (stereo not drawn) [Compound I5]	5
COC1=C(Cl)C(O)N(c2cc(C(C)(C)C)n(C)n2)C1=O (stereo not drawn) [Compound J1, 1-(5-tert-butyl-1-methyl-pyrazol-3-yl)-3-chloro-2-hydroxy-4-methoxy-2H-pyrrol-5-one]	5

Same assay, conditions: Setaria faberi, 250 g/ha, scale 0-5

SMILES	Post-emergence herbicidal damage score, SETFA (Setaria faberi)
COC1=C(C)C(=O)N(c2cc(C(C)(C)C)[nH]n2)C1O (stereo not drawn) [Compound I1]	5
COC1=C(C)C(=O)N(c2cc(C(C)(C)C)n(C)n2)C1O (stereo not drawn) [Compound I2]	4

Same assay, conditions: Setaria faberi, 1000 g/ha, scale 0-5

SMILES	Post-emergence herbicidal damage score, SETFA (Setaria faberi)
CC1=C(Br)C(O)N(c2cc(C(C)(C)C)n(C)n2)C1=O (stereo not drawn) [Compound H1]	3
CC1=C(Br)C(O)N(c2cc(C(C)(C)C)[nH]n2)C1=O (stereo not drawn) [Compound H2]	4
CC(C)=CCc1cc(N2C(=O)C(C)=C(Br)C2O)nn1C (stereo not drawn) [Compound H3]	0
CC1=C(Br)C(O)N(c2cc(C(F)(F)F)n(C)n2)C1=O (stereo not drawn) [Compound H4]	1
CC1=C(Br)C(O)N(c2nn(C)c(C(C)(C)C)c2C#N)C1=O (stereo not drawn) [Compound H5]	1
CCC1=C(Br)C(O)N(c2nn(C)c(C(C)(C)C)c2C#N)C1=O (stereo not drawn) [Compound H6]	2
CC1=C(Br)C(O)N(c2cc3n(n2)CCC3(C)C)C1=O (stereo not drawn) [Compound H7]	4
CC1=C(Br)C(O)N(c2cc3n(n2)CCCC3(C)C)C1=O (stereo not drawn) [Compound H8]	4
CC1=C(Br)C(O)N(c2cc3n(n2)CCSC3(C)C)C1=O (stereo not drawn) [Compound H9]	3
CC1=C(Br)C(O)N(c2nn(C)c3c2CCC3(C)C)C1=O (stereo not drawn) [Compound H10]	5
COC1=C(C)C(=O)N(c2cc(C(F)(F)F)n(C)n2)C1O (stereo not drawn) [Compound I3]	5
COC1=C(C)C(=O)N(c2nn(C)c3c2CCC3(C)C)C1O (stereo not drawn) [Compound I4]	5
COC1=C(C)C(=O)N(c2cc3n(n2)CCCC3(C)C)C1O (stereo not drawn) [Compound I5]	5
COC1=C(Cl)C(O)N(c2cc(C(C)(C)C)n(C)n2)C1=O (stereo not drawn) [Compound J1, 1-(5-tert-butyl-1-methyl-pyrazol-3-yl)-3-chloro-2-hydroxy-4-methoxy-2H-pyrrol-5-one]	5

Same assay, conditions: Zea mays, 250 g/ha, scale 0-5

SMILES	Post-emergence herbicidal damage score, ZEAMX (Zea mays)
COC1=C(C)C(=O)N(c2cc(C(C)(C)C)[nH]n2)C1O (stereo not drawn) [Compound I1]	1
COC1=C(C)C(=O)N(c2cc(C(C)(C)C)n(C)n2)C1O (stereo not drawn) [Compound I2]	1

Same assay, conditions: Zea mays, 1000 g/ha, scale 0-5

SMILES	Post-emergence herbicidal damage score, ZEAMX (Zea mays)
CC1=C(Br)C(O)N(c2cc(C(C)(C)C)n(C)n2)C1=O (stereo not drawn) [Compound H1]	1
CC1=C(Br)C(O)N(c2cc(C(C)(C)C)[nH]n2)C1=O (stereo not drawn) [Compound H2]	2
CC(C)=CCc1cc(N2C(=O)C(C)=C(Br)C2O)nn1C (stereo not drawn) [Compound H3]	0
CC1=C(Br)C(O)N(c2cc(C(F)(F)F)n(C)n2)C1=O (stereo not drawn) [Compound H4]	0
CC1=C(Br)C(O)N(c2nn(C)c(C(C)(C)C)c2C#N)C1=O (stereo not drawn) [Compound H5]	0
CCC1=C(Br)C(O)N(c2nn(C)c(C(C)(C)C)c2C#N)C1=O (stereo not drawn) [Compound H6]	0
CC1=C(Br)C(O)N(c2cc3n(n2)CCC3(C)C)C1=O (stereo not drawn) [Compound H7]	1
CC1=C(Br)C(O)N(c2cc3n(n2)CCCC3(C)C)C1=O (stereo not drawn) [Compound H8]	0
CC1=C(Br)C(O)N(c2cc3n(n2)CCSC3(C)C)C1=O (stereo not drawn) [Compound H9]	0
CC1=C(Br)C(O)N(c2nn(C)c3c2CCC3(C)C)C1=O (stereo not drawn) [Compound H10]	3
COC1=C(C)C(=O)N(c2cc(C(F)(F)F)n(C)n2)C1O (stereo not drawn) [Compound I3]	4
COC1=C(C)C(=O)N(c2nn(C)c3c2CCC3(C)C)C1O (stereo not drawn) [Compound I4]	3
COC1=C(C)C(=O)N(c2cc3n(n2)CCCC3(C)C)C1O (stereo not drawn) [Compound I5]	4
COC1=C(Cl)C(O)N(c2cc(C(C)(C)C)n(C)n2)C1=O (stereo not drawn) [Compound J1, 1-(5-tert-butyl-1-methyl-pyrazol-3-yl)-3-chloro-2-hydroxy-4-methoxy-2H-pyrrol-5-one]	3
